Read-outs that look alike come from different tables or passages of the source.
Experiments:
human NOD2 signaling = test: Inhibition of human NOD2 signaling in HEK-Blue-hNOD2 cells (L18-MDP stimulated, SEAP reporter); assay type: cell-based; details: NOD2 ligand stimulation, SEAP reporter, read-out: hNOD2 IC50
Summary of the method: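 HEK-Blue-hNOD2 cells (HEK293 with NOD2 and SEAP reporter), 12500/well, treated with 10-point 3-fold compound dilutions plus L18-MDP 0.5 ng/mL final, 24 h at 37 °C. Supernatant SEAP read with QUANTI-Blue after 3 h at 620 nm; IC50 by 4-parameter fit vs DMSO±L18-MDP controls.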

RIPK2 enzyme = target: T1, RIPK2 enzyme (Homo sapiens, UniProt O43353); test: RIPK2 inhibition (ADP-Glo Kinase Assay); assay type: biochemical; details: RIPK2 5 nM, ATP 150 μM, MBP substrate, read-out: RIPK2 IC50
T1 construct: purchased Carna 09-128
T1 sequence (O43353 1-299 limits assumed): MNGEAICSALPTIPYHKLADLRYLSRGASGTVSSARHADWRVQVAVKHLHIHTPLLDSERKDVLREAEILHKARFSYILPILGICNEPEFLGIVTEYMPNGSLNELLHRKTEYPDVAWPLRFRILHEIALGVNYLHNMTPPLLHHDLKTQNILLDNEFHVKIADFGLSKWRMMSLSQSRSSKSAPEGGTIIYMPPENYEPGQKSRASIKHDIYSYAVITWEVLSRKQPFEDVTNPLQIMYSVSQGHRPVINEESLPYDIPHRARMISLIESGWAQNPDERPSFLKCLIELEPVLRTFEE
Summary of the method: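 Human RIPK2 (5 nM) preincubated with compound 30 min at room temperature in 50 mM HEPES pH 7.5, 10 mM MgCl2, 2 mM DTT, 1 mM EGTA, 0.01% Brij-35, 0.05% BSA; native swine MBP as substrate. ADP formed quantified by ADP-Glo luminescence; percent inhibition relative to DMSO and no-enzyme controls.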

[1] = test system: TNF-alpha secretion in human whole blood; test: Inhibition of TNF-alpha secretion in human whole blood (IFN-gamma primed, L18-MDP stimulated); assay type: cell-based; details: L18-MDP 100 ng/mL, read-out: Human Whole Blood TNFα IC50
Protocol: Materials: Assay medium consisted of RPMI 1640 medium (catalogue number: 11875119) and 10% heat inactivated FBS (Cytvia). U-PLEX Biomarker Assay (cat #K15067L-4) to detect levels of TNF-alpha was purchased from Meso Scale Discovery. Heparinized whole blood from healthy donors/volunteers was obtained through Research Blood Components, LLC.
Test compounds were prepared into a 10 mM DMSO solution and serially diluted into 9 points using a 3-fold dilution in a 96 well plate. A 10× working stock solution of recombinant human IFN-gamma (final concentration of 10 ng/mL) was prepared in assay medium and used to prepare a 10× solution of test compound. 20 μL of 10×IFN-gamma and test compound (or DMSO control) was added to a 96-well plate. 160 μL of heparinized whole blood obtained from healthy donors was dispensed into individual wells of the 96-well plate and placed on a plate shaker (150 rpm) and incubated for 60 min at 37° C. in a CO2 incubator. Subsequently, 20 μL of L18-MDP (final concentration of 100 ng/mL) was added to the appropriate wells and further incubated for 16 hours on a plate shaker (150 rpm) at 37° C. in a CO2 incubator. The final concentration of DMSO was 0.05% (v/v) in all wells. After incubation, 100 μL of DPBS was added per well, mixed by shaking at 500 rpm for 2 minutes, followed by centrifugation (400×g for 10 minutes) and collection of supernatants. TNF-alpha in supernatants was measured using MSD immunoassay (MesoScale Discovery). 4-parametric curve fit was used to determine the test compound concentration that results in 50% reduction of TNF-alpha concentration in supernatant relative to assay controls.

[2] = target: T2, RIPK2 and XIAP protein-protein interaction (Homo sapiens, UniProt O43353); test: Inhibition of the interaction of RIPK2 with XIAP (NanoBRET in HEK293T cells); assay type: cell-based; details: RIPK2 HaloTag / XIAP NanoLuc, read-out: NanoBRET Scaffolding IC50
T2 construct: the N-terminus of full-length RIPK2 was appended with the HaloTag fusion protein; expressed in transfected cells; host or cells: HEK293T
T2 sequence (O43353 whole entry, the tested form may be a part): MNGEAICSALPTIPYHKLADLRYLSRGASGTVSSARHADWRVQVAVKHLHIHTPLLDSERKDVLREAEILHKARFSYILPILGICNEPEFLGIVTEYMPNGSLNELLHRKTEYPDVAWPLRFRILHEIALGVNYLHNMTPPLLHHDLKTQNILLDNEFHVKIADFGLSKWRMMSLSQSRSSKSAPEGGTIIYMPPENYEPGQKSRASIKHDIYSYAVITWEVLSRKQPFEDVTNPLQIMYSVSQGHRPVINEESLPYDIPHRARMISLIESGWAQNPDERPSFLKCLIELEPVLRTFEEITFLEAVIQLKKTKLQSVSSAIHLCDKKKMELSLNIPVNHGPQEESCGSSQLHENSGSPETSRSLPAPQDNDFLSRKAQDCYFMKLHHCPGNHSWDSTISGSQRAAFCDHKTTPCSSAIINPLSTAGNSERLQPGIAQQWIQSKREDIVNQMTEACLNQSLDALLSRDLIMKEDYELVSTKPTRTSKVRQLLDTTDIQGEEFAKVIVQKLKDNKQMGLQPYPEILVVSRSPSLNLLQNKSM
Summary of the method: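 HEK293T cells transiently co-transfected with HaloTag-RIPK2 (N-terminal) and XIAP-NanoLuc (C-terminal) full-length fusions, grown 24 h at 37° C. in Opti-MEM with 4% FBS. Compounds tested as 10-point 3-fold dilutions; NanoBRET ratio taken as 618 nm acceptor over 460 nm donor emission.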

[3] = Homo sapiens, HEK-Blue hNOD2, HEK-Blue-hNOD2 cells

| Structure (SMILES) | IC50 (human NOD2 signaling; [3]) | IC50 (RIPK2 enzyme) | IC50 ([1]; Homo sapiens, 16 h) | IC50 [2] | IC50 (human NOD2 signaling; HEK-Blue-hNOD2 cells) | IC50 ([1]; 16 hours) |
| --- | --- | --- | --- | --- | --- | --- |
| Cc1cc(CC(=O)Nc2cnn(C(C)(C)C)c2)ccc1Oc1ccnc2ccc(OC3CCN(C)CC3)cc12 [Compound 82, N-(1-(tert-butyl)-1H-pyrazol-4-yl)-2-(3-methyl-4-((6-((1-methyl-piperidin-4-yl)oxy)quinolin-4-yl)oxy)phenyl) acetamide] | – | < 2.5 nM | – | 6 nM | 1.9 nM | 4 nM |
| Cc1cc(C(C)C(=O)Nc2cnn(C(C)(C)C)c2)ccc1Oc1ccnc2ccc(S(C)(=O)=O)cc12 (single isomer, unassigned) [Compound 215, N-(1-(tert-butyl)-1H-pyrazol-4-yl)-2-(3-methyl-4-((6-(methylsulfonyl)quinolin-4-yl)oxy)phenyl)propanamide] | 3.2 nM | < 2.5 nM | 55 nM | 39 nM | – | – |
| Cc1cc(CC(=O)Nc2cnn(C(C)(C)C)c2)ccc1Oc1ccnc2ccc(P(C)(C)=O)cc12 [Compound 179, N-(1-(tert-butyl)-1H-pyrazol-4-yl)-2-(4-((6-(dimethylphosphoryl)quinolin-4-yl)oxy)-3-methylphenyl) acetamide] | 38.1 nM | < 2.5 nM | 6 nM | 465 nM | – | – |
| CN1CCC(Oc2ccc3nccc(Oc4cnc(CC(=O)Nc5cnn(C(C)(C)C)c5)c(F)c4)c3c2)CC1 [Compound 78, N-(1-(tert-butyl)-1H-pyrazol-4-yl)-2-(3-fluoro-5-((6-((1-methylpiperidin-4-yl)oxy)quinolin-4-yl)oxy)pyridin-2-yl)acetamide] | 32.7 nM | 13.4 nM | 7 nM | 37 nM | – | – |
| Cc1c(Oc2ccnc3ccc(S(=O)(=O)C4CC4)cc23)ccc(CC(=O)Nc2cnn(C(C)(C)C)c2)c1F [Compound 174, N-(1-(tert-butyl)-1H-pyrazol-4-yl)-2-(4-((6-(cyclopropylsulfonyl)quinolin-4-yl)oxy)-2-fluoro-3-methylphenyl)acetamide] | 0.2 nM | < 2.5 nM | 2 nM | 5 nM | – | – |
| COc1ccc2ncnc(Oc3ccc(CC(=O)Nc4cnn(C(C)(C)C)c4)c(F)c3)c2c1 [Compound 8, N-(1-(tert-butyl)-1H-pyrazol-4-yl)-2-(2-fluoro-4-((6-methoxy-quinazolin-4-yl)oxy)phenyl) acetamide] | 11.4 nM | 7.6 nM | 103 nM | 6 nM | – | – |
| CN1CCC(Oc2ccc3ncnc(Oc4cnc(CC(=O)Nc5cnn(C(C)(C)C)c5)c(F)c4)c3c2)CC1 [Compound 20, N-(1-(tert-butyl)-1H-pyrazol-4-yl)-2-(3-fluoro-5-((6-((1-methylpiperidin-4-yl)oxy)quinazolin-4-yl)oxy)pyridin-2-yl)acetamide] | 21.7 nM | 10.4 nM | 12 nM | 144 nM | – | – |
| CC(C)(C)n1cc(NC(=O)Cc2ccc(Oc3ccnc4ccc(S(C)(=O)=O)cc34)c(C(F)F)c2)cn1 [Compound 92, N-(1-(tert-butyl)-1H-pyrazol-4-yl)-2-(3-(difluoromethyl)-4-((6-(methylsulfonyl)quinolin-4-yl)oxy)phenyl)acetamide] | 6.6 nM | < 2.5 nM | 40 nM | 132 nM | – | – |

Second part, the molecule after the results:

| IC50 (human NOD2 signaling; [3]) | IC50 (RIPK2 enzyme) | IC50 ([1]; Homo sapiens, 16 h) | IC50 [2] | IC50 (human NOD2 signaling; HEK-Blue-hNOD2 cells) | IC50 ([1]; 16 hours) | Structure (SMILES) |
| --- | --- | --- | --- | --- | --- | --- |
| 1.6 nM | < 2.5 nM | 18 nM | 44 nM | – | – | CC(C)(C)n1cc(NC(=O)Cc2cc(Cl)c(Oc3ccnc4ccc(S(C)(=O)=O)cc34)cc2F)cn1 [Compound 429, N-(1-(tert-butyl)-1H-pyrazol-4-yl)-2-(5-chloro-2-fluoro-4-((6-(methylsulfonyl)quinolin-4-yl)oxy)phenyl)acetamide] |
| 1.3 nM | < 2.5 nM | 8 nM | – | – | – | CCS(=O)(=O)c1ccc2nccc(Oc3cc(F)c(CC(=O)Nc4cnn(C(C)(C)C)c4)cc3C)c2c1 [Compound 306, N-(1-(tert-butyl)-1H-pyrazol-4-yl)-2-(4-((6-(ethylsulfonyl)quinolin-4-yl)oxy)-2-fluoro-5-methylphenyl)acetamide] |
| 2.9 nM | < 2.5 nM | 37 nM | 20 nM | – | – | Cc1cc(CC(=O)Nc2cnn(C34CC(C3)C4)c2)ccc1Oc1ccnc2ccc(S(C)(=O)=O)cc12 [Compound 239, N-(1-(bicyclo[1.1.1]pentan-1-yl)-1H-pyrazol-4-yl)-2-(3-methyl-4-((6-(methylsulfonyl)quinolin-4-yl)oxy)phenyl)acetamide] |
| 2.5 nM | < 2.5 nM | 13 nM | 27 nM | – | – | COc1cc2nccc(Oc3ccc(CC(=O)Nc4cnn(C(C)(C)C)c4)cc3C(F)F)c2cc1S(C)(=O)=O [Compound 413, N-(1-(tert-butyl)-1H-pyrazol-4-yl)-2-(3-(difluoromethyl)-4-((7-methoxy-6-(methylsulfonyl)quinolin-4-yl)oxy)phenyl) acetamide] |
| 0.3 nM | < 2.5 nM | 4.1 nM | 13.3 nM | – | – | Cc1c(Oc2ccnc3ccc(S(C)(=O)=O)cc23)cc(F)c(CC(=O)Nc2cnn(C(C)(C)C)c2)c1F [Compound 472, N-(1-(tert-butyl)-1H-pyrazol-4-yl)-2-(2,6-difluoro-3-methyl-4-((6-(methylsulfonyl)quinolin-4-yl)oxy)phenyl)acetamide] |
| – | < 2.5 nM | – | 3 nM | 0.2 nM | 7 nM | Cc1c(Oc2ccnc3ccc(S(=N)(=O)C4CC4)cc23)ccc(CC(=O)Nc2cnn(C(C)(C)C)c2)c1F (single isomer, unassigned) [Compound 442, N-(1-(tert-butyl)-1H-pyrazol-4-yl)-2-(4-((6-(cyclopropanesulfonimidoyl)quinolin-4-yl)oxy)-2-fluoro-3-methylphenyl)acetamide] |
| – | < 2.5 nM | – | 204 nM | 1.4 nM | 4 nM | CCS(=N)(=O)c1ccc2nccc(Oc3ccc(CC(=O)Nc4cnn(C(C)(C)C)c4)cc3C)c2c1 (single isomer, unassigned) [Compound 546, N-(1-(tert-butyl)-1H-pyrazol-4-yl)-2-(4-((6-(ethylsulfonimidoyl)quinolin-4-yl)oxy)-3-methylphenyl) acetamide] |
| 3.7 nM | < 2.5 nM | 5.9 nM | 22 nM | – | – | [2H]C([2H])([2H])NC(=O)c1ccc2nccc(Oc3cc(F)c(CC(=O)Nc4cnn(C(C)(C)C)c4)cc3C)c2c1 [Compound 492, 4-(4-(2-((1-(tert-butyl)-1H-pyrazol-4-yl)amino)-2-oxoethyl)-5-fluoro-2-methylphenoxy)-N-(methyl-d3)quinoline-6-carboxamide] |
| 1.2 nM | < 2.5 nM | – | 42.4 nM | – | – | [2H]C([2H])([2H])NC(=O)c1cc2c(Oc3c(C)cc(CC(=O)Nc4cnn(C(C)(C)C)c4)cc3C)ccnc2cc1F [Compound 583, 4-(4-(2-((1-(tert-butyl)-1H-pyrazol-4-yl)amino)-2-oxoethyl)-2,6-dimethylphenoxy)-7-fluoro-N-(methyl-d3)quinoline-6-carboxamide] |
| 0.1 nM | < 2.5 nM | – | 7.3 nM | – | – | [2H]C([2H])([2H])NC(=O)c1ccc2nccc(Oc3cc(F)c(CC(=O)Nc4cnn(C(C)(C)C)c4)c(F)c3C)c2c1 (single isomer, unassigned) [Compound 555, 4-(4-(2-((1-(tert-butyl)-1H-pyrazol-4-yl)amino)-2-oxoethyl)-3,5-difluoro-2-methylphenoxy)-N-(methyl-d3)quinoline-6-carboxamide] |

From patent publication US12624018B1, “Inhibitors of RIPK2 and medical uses thereof” (Odyssey Therapeutics, Inc., priority 2022, dated 2026)
